From ChEMBL document CHEMBL5665443, “Enzyme Inhibitor Single Concentration assay results for EUbOPEN Chemogenomics Library” (2024)

Columns and labels:
Conditions in all cases: Hit No
[1] = target: Methyl-CpG-binding domain protein 4 (Homo sapiens) (UniProt O95243);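 further: MBD4 activity read as fluorescence at 594 nm from cleavage and release of a quenched duplex DNA oligonucleotide, with APE1 coupled to incise the strand and raise turnover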
Description: Inhibition of MBD4 by quantifying inhibition of MBD4-mediated cleavage and dissociation of quenched duplex DNA oligonucleotides, measured as fluorescence at 594 nm. To generate a functional strand incision and increase turn-over this assay is coupled to APE1.

[2] = target: DNA-3-methyladenine glycosylase (Homo sapiens) (UniProt P29372);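 further: enzyme assay where MPG cuts a quenched duplex DNA oligonucleotide probe, paired with APE1 for strand incision and turnover, read as fluorescence at 594 nm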
Description: Inhibition of MPG by quantifying inhibition of MPG-mediated cleavage and dissociation of quenched duplex DNA oligonucleotides, measured as fluorescence at 594 nm. To generate a functional strand incision and increase turn-over this assay is coupled to APE1.

[3] = target: T1, Adenine DNA glycosylase (Homo sapiens) (UniProt Q9UIF7);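 further: human MUTYH activity read as 594 nm fluorescence from cleavage and release of a quenched DNA duplex, coupled with APE1 for strand incision, lower signal meaning inhibition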
T1 sequence (whole entry): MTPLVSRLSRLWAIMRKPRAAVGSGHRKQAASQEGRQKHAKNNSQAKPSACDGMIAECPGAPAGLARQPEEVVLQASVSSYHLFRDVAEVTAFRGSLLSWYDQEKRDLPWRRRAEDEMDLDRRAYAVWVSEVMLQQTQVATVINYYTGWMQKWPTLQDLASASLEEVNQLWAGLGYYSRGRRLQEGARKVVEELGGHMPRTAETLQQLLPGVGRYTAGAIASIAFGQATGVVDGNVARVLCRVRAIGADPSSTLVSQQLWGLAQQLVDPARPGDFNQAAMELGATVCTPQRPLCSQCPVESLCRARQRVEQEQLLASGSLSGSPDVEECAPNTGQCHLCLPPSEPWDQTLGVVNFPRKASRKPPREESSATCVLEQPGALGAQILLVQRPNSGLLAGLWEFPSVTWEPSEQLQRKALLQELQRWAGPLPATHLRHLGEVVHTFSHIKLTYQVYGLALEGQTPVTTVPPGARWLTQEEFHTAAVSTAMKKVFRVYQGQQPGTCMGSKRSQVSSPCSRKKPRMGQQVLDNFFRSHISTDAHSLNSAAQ
Description: Inhibition of MUTYH by quantifying inhibition of MUTYH-mediated cleavage and dissociation of quenched duplex DNA oligonucleotides, measured as fluorescence at 594 nm. To generate a functional strand incision and increase turn-over this assay is coupled to APE1.

[4] = target: Endonuclease 8-like 1 (Homo sapiens) (UniProt Q96FI4);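 further: fluorescence at 594 nm from quenched duplex DNA oligonucleotides released by NEIL1 cleavage and strand separation, reported as reduction of this enzyme activity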
Description: Inhibition of NEIL1 by quantifying inhibition of NEIL1-mediated cleavage and dissociation of quenched duplex DNA oligonucleotides, measured as fluorescence at 594 nm.

[5] = target: T2, Endonuclease 8-like 2 (Homo sapiens) (UniProt Q969S2);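 further: fluorescence at 594 nm reports NEIL2 cutting and release of a quenched double-stranded DNA oligo substrate, reduced signal read as inhibition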
T2 sequence (whole entry): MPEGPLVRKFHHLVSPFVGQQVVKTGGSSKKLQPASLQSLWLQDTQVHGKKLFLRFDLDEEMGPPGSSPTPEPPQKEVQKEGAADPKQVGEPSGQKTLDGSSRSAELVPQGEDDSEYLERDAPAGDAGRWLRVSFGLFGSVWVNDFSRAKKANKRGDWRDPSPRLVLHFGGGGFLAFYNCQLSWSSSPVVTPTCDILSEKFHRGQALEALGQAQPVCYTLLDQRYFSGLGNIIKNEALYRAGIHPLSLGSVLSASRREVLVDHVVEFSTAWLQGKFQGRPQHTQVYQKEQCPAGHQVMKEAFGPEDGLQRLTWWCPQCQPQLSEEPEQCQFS
Description: Inhibition of NEIL2 by quantifying inhibition of NEIL2-mediated cleavage and dissociation of quenched duplex DNA oligonucleotides, measured as fluorescence at 594 nm.

[6] = target: T3, Endonuclease III-like protein 1 (Homo sapiens) (UniProt P78549);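 further: enzyme assay tracking NTHL1 cutting and release of a quenched double-stranded DNA oligo substrate, read as fluorescence at 594 nm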
T3 sequence (whole entry): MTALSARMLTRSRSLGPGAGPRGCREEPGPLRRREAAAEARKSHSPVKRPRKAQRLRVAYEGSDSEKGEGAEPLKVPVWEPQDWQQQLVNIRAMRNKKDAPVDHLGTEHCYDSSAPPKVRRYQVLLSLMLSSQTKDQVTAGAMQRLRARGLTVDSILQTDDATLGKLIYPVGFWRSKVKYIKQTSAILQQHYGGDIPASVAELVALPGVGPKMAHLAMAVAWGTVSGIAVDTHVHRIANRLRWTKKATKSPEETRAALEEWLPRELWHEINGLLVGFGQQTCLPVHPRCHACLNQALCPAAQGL
Description: Inhibition of NTHL1 by quantifying inhibition of NTHL1-mediated cleavage and dissociation of quenched duplex DNA oligonucleotides, measured as fluorescence at 594 nm.

[7] = target: N-glycosylase/DNA lyase (Homo sapiens) (UniProt O15527);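 further: OGG1 cleavage of a quenched duplex DNA oligonucleotide, coupled to APE1 for strand incision, read as fluorescence at 594 nm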
Description: Inhibition of OGG1 by quantifying inhibition of OGG1-mediated cleavage and dissociation of quenched duplex DNA oligonucleotides, measured as fluorescence at 594 nm. To generate a functional strand incision and increase turn-over this assay is coupled to APE1.

[8] = target: T4, Single-strand selective monofunctional uracil DNA glycosylase (Homo sapiens) (UniProt Q53HV7);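 further: enzymatic SMUG1 assay coupled with APE1, reading fluorescence at 594 nm released when a quenched double-stranded DNA oligonucleotide substrate is cleaved and separated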
T4 sequence (whole entry): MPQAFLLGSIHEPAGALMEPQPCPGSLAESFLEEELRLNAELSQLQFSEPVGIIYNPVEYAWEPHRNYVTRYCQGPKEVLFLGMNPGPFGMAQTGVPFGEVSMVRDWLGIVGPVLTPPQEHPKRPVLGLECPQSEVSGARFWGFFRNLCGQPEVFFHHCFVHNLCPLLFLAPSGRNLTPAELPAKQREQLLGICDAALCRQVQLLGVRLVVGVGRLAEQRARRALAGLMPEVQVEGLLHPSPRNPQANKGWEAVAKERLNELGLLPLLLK
Description: Inhibition of SMUG1 by quantifying inhibition of SMUG1-mediated cleavage and dissociation of quenched duplex DNA oligonucleotides, measured as fluorescence at 594 nm. To generate a functional strand incision and increase turn-over this assay is coupled to APE1.

[9] = target: G/T mismatch-specific thymine DNA glycosylase (Homo sapiens) (UniProt Q13569);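 further: human TDG cleavage of quenched duplex DNA oligonucleotides coupled to APE1, strand release read as fluorescence at 594 nm, inhibition of TDG activity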
Description: Inhibition of TDG by quantifying inhibition of TDG-mediated cleavage and dissociation of quenched duplex DNA oligonucleotides, measured as fluorescence at 594 nm. To generate a functional strand incision and increase turn-over this assay is coupled to APE1.

[10] = target: Uracil-DNA glycosylase (Homo sapiens) (UniProt P13051);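 further: UNG excision on a quenched double-stranded DNA oligo probe, with APE1 added for strand incision and turnover, read as fluorescence at 594 nm as strands separate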
Uracil-DNA glycosylase (Homo sapiens), sequence (P13051 whole entry): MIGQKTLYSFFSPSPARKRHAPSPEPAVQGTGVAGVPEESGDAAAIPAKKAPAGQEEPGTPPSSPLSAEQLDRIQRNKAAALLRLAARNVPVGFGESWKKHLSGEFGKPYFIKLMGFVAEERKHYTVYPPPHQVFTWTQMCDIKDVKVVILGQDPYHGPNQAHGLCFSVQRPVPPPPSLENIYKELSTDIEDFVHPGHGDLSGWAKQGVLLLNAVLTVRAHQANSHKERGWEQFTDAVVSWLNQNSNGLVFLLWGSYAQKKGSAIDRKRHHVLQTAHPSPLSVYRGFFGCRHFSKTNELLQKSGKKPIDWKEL
Description: Inhibition of UNG by quantifying inhibition of UNG-mediated cleavage and dissociation of quenched duplex DNA oligonucleotides, measured as fluorescence at 594 nm. To generate a functional strand incision and increase turn-over this assay is coupled to APE1.

Methyl-CpG-binding domain protein 4 (Homo sapiens), sequence (O95243 whole entry, the tested form may be a part): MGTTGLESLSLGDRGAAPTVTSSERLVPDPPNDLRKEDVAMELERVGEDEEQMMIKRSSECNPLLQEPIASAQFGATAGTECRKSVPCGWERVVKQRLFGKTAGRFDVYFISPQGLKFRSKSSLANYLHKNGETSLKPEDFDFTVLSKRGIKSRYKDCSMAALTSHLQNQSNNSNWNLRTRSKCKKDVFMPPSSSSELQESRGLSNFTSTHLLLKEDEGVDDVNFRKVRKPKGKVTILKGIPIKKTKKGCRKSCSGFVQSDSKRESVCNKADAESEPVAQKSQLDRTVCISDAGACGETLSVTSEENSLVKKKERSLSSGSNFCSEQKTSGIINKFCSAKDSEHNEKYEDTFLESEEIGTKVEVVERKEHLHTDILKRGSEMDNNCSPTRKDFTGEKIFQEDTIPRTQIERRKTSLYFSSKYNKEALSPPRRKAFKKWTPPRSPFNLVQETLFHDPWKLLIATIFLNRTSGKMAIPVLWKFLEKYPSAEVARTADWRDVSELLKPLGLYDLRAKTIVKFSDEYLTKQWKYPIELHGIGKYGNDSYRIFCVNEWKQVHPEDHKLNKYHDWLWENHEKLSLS
N-glycosylase/DNA lyase (Homo sapiens), sequence (O15527 whole entry): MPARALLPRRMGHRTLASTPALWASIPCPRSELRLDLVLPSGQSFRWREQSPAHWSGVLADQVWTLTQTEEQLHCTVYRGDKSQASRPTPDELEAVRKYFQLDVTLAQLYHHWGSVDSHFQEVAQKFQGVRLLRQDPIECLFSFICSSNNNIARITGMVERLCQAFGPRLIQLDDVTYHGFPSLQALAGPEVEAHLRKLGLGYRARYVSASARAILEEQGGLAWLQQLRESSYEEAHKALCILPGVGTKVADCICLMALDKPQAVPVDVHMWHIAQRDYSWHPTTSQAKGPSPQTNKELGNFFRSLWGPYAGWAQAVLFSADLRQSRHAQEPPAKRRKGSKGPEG
Endonuclease 8-like 1 (Homo sapiens), sequence (Q96FI4 whole entry): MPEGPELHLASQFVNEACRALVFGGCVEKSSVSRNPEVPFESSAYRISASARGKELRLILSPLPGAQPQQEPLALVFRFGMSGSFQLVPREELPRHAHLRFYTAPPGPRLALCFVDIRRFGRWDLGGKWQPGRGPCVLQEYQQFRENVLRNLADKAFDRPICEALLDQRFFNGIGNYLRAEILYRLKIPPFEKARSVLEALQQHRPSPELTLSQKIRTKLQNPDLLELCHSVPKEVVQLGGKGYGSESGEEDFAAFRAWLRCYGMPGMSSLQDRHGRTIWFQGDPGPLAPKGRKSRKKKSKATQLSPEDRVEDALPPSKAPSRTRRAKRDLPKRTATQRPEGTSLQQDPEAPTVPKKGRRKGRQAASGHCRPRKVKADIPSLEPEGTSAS
G/T mismatch-specific thymine DNA glycosylase (Homo sapiens), sequence (Q13569 whole entry): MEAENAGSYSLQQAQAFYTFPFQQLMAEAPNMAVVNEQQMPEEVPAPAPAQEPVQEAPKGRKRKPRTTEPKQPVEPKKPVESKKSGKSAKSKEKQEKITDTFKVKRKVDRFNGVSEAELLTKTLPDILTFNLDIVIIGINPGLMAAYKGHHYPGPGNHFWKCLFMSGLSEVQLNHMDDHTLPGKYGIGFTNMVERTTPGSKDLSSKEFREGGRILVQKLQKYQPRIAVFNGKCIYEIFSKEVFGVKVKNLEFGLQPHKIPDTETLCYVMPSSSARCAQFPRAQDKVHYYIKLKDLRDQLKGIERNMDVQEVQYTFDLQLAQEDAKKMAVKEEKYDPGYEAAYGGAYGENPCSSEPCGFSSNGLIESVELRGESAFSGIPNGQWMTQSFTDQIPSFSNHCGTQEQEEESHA
DNA-3-methyladenine glycosylase (Homo sapiens), sequence (P29372 whole entry): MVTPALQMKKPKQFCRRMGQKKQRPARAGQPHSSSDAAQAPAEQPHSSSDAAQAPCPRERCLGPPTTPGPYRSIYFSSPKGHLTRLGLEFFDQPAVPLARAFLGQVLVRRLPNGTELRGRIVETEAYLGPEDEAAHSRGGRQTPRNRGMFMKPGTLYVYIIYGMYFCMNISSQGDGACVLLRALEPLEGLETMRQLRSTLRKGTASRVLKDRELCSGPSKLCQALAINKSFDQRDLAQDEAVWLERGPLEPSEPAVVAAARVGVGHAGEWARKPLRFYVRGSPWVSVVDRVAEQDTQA

Row | Structure (SMILES) | inhibition ([1]; Compound Concentration 10.0 uM) [%] | inhibition ([2]; Compound Concentration 10.0 uM) [%] | inhibition ([3]; Compound Concentration 10.0 uM) [%] | inhibition ([4]; Compound Concentration 10.0 uM) [%] | inhibition ([5]; Compound Concentration 10.0 uM) [%] | inhibition ([6]; Compound Concentration 10.0 uM) [%] | inhibition ([7]; Compound Concentration 10.0 uM) [%] | inhibition ([8]; Compound Concentration 10.0 uM) [%] | inhibition ([9]; Compound Concentration 10.0 uM) [%] | inhibition ([10]; Compound Concentration 10.0 uM) [%] | inhibition ([1]; Compound Concentration 1.0 uM) [%] | inhibition ([2]; Compound Concentration 1.0 uM) [%] | inhibition ([3]; Compound Concentration 1.0 uM) [%] | inhibition ([4]; Compound Concentration 1.0 uM) [%] | inhibition ([5]; Compound Concentration 1.0 uM) [%] | inhibition ([6]; Compound Concentration 1.0 uM) [%] | inhibition ([7]; Compound Concentration 1.0 uM) [%] | inhibition ([8]; Compound Concentration 1.0 uM) [%] | inhibition ([9]; Compound Concentration 1.0 uM) [%] | inhibition ([10]; Compound Concentration 1.0 uM) [%]
1 | O=c1ccc2c(OCCCCc3ccccc3)c3ccoc3cc2o1 | -4.82 | 2.27 | 4.38 | 4.31 | 2.71 | 7.17 | 0.716 | 0.0989 | 5.01 | -2.86 |  |  |  |  |  |  |  |  |  | 
2 | COc1cc(NC(=O)CCN2CCC(OC(=O)Nc3ccccc3-c3ccccc3)CC2)c(Cl)cc1CNC[C@H](O)c1ccc(O)c2[nH]c(=O)ccc12 | -6.36 | 7.51 | 11.4 | -7.76 | -2.98 | 9.99 | -7.57 | 0.984 | 16.7 | -5.99 |  |  |  |  |  |  |  |  |  | 
3 | O=[N+]([O-])c1ccc2nc(COCc3nc4ccc([N+](=O)[O-])cc4[nH]3)[nH]c2c1 | 19.9 | 18.4 | 6.46 | 12.5 | 2.2 | 0.568 | 7 | 4.96 | 27.1 | 0.834 |  |  |  |  |  |  |  |  |  | 
4 | COc1cc([N+](=O)[O-])ccc1NC(=O)c1ccccc1O | 0.275 | -4.2 | 4.12 | 3.86 | 8.06 | -0.258 | -1.87 | 9.42 | 9.09 | -6.06 |  |  |  |  |  |  |  |  |  | 
5 | CCOC(=O)N[C@@H]1CC[C@@H]2[C@@H](C1)C[C@H]1C(=O)O[C@H](C)[C@H]1[C@H]2/C=C/c1ccc(-c2cccc(F)c2)cn1 | -1.19 | -7.15 | 1.43 | 5.28 | -1.73 | 2.66 | 8.48 | 10.5 | 13.4 | -5.33 |  |  |  |  |  |  |  |  |  | 
6 | COc1cc(OC)cc(C(=O)NNC(=O)Nc2cccc3ccccc23)c1 | -8.62 | 3.65 | 2.2 | -1.69 | 5.26 | 2.66 | 3.09 | 3.6 | 11.6 | -7.99 |  |  |  |  |  |  |  |  |  | 
7 | CC(=O)Nc1cccc(-n2c(=O)n(C3CC3)c(=O)c3c(Nc4ccc(I)cc4F)n(C)c(=O)c(C)c32)c1 |  |  |  |  |  |  |  |  |  |  | 22.2 | 11.7 | 15.8 | 2.25 | 1.85 | -1.31 | 8.25 | 18.1 | 45.9 | 7.39
8 | COc1cc(OC)c(NC(=O)Nc2cc(C)on2)cc1Cl | -2.96 | -9.71 | -8.2 | -2.66 | 3.98 | 17.9 | -6.94 | -8.83 | -8.88 | -3.91 |  |  |  |  |  |  |  |  |  | 
9 | O=C(NNC(=O)c1ccc(CNS(=O)(=O)c2ccc(F)c(Cl)c2)cc1)c1ccccc1 | 27 | 9.45 | 22.1 | 3.71 | -6.97 | 4.7 | 13.2 | 13.3 | 16.4 | -0.108 |  |  |  |  |  |  |  |  |  | 
10 | O=C(O)C[C@H]1CCc2c1[nH]c1ccc(OCc3ccc(C4CCCC4)c(C(F)(F)F)c3)cc21 | 47.5 | 18.9 | 9.75 | -9.84 | 0.515 | 36.4 | 34.1 | -8.03 | 45 | -6.26 |  |  |  |  |  |  |  |  |  | 
11 | O=C(NCC(=O)N1CC[C@H](N[C@H]2CC[C@@](O)(c3ccc(-c4ncccn4)cn3)CC2)C1)c1cccc(C(F)(F)F)c1 | -4.26 | -2.02 | 10.3 | 2.76 | 6.25 | 0.458 | 1.04 | 2.1 | 24.3 | -9.06 |  |  |  |  |  |  |  |  |  | 
12 | COc1cc2nc(N3CCN(C(=O)C4CCCO4)CC3)nc(N)c2cc1OC (stereo not given) | 17 | 11.2 | 19 | 13.6 | 22.5 | -3.21 | 0.439 | 3.65 | 22.2 | -7.11 |  |  |  |  |  |  |  |  |  | 
13 | NCCc1c[nH]c2ccc(O)cc12 | -6.88 | 21.8 | 2.2 | 5.88 | 9.75 | 1.92 | -2.75 | -6.38 | 20.7 | -8.18 |  |  |  |  |  |  |  |  |  | 
14 | Oc1cc2c(cc1O)CN(C(=S)NCCc1ccc(Cl)cc1)CCC2 | 39.2 | 26.6 | 73.8 | 12.2 | 6.53 | 3.04 | -1.56 | 1.46 | 46.1 | 3.52 |  |  |  |  |  |  |  |  |  | 
15 | NC(N)=Nc1nc(CSCC/C(N)=N/S(N)(=O)=O)cs1 | 6.83 | 11.5 | 21.8 | 9.58 | 17.5 | -2.47 | 2.35 | -5.17 | 13.5 | -4.9 |  |  |  |  |  |  |  |  |  | 
